According to US9657351B2, “MRNA-based gene expression for personalizing patient cancer therapy with an MDM2 antagonist” (Hoffmann-La Roche Inc., priority 2013, dated 2017):

Experiments:
Assay in all cases: COMPOUND A In Vitro Assay
Type in all cases: cell-based
A-673 = conditions: Homo sapiens, A673, Muscle, TP53 Mutant
Method in brief: (§1)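 Each human tumour-derived line is exposed to COMPOUND A, an MDM2 antagonist, in a high-throughput format, and an IC50 is generated. Baseline mRNA was profiled by RNA sequencing before treatment.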

A2058 = conditions: Homo sapiens, Skin, TP53 Mutant
Method in brief: as §1

A549 = conditions: Homo sapiens
Method in brief: as §1

BT-474 = conditions: Homo sapiens, Breast, mammary gland, TP53 Mutant
Method in brief: as §1

C-33 A = conditions: Homo sapiens, Cervix, TP53 Mutant
Method in brief: as §1

C32 = conditions: Homo sapiens, Skin, TP53 Wild type
Method in brief: as §1

HARA-B = conditions: Homo sapiens, Lung, TP53 Mutant
Method in brief: as §1

HCC1569 = conditions: Homo sapiens, Breast, mammary gland, TP53 Mutant
Method in brief: as §1

HCC1954 = conditions: Homo sapiens, Breast, mammary gland, TP53 Mutant
Method in brief: as §1

HCT-15 = conditions: Homo sapiens, Intestine, large, colon, TP53 Mutant
Method in brief: as §1

HT-1376 = conditions: Homo sapiens, Urinary, bladder, TP53 Mutant
Method in brief: as §1

HeLa S3 = conditions: Homo sapiens, Cervix, TP53 Mutant
Method in brief: as §1

Hs 578T = conditions: Homo sapiens, Breast, mammary gland, TP53 Mutant
Method in brief: as §1

IM-9 = conditions: Homo sapiens
Method in brief: as §1

KYSE-150 = conditions: Homo sapiens, Esophagus, TP53 Mutant
Method in brief: as §1

LS411N = conditions: Homo sapiens, LS-411N, Intestine, large, caecum, TP53 Mutant
Method in brief: as §1

LoVo = conditions: Homo sapiens, Intestine, large, colon, TP53 Wild type
Method in brief: as §1

MDA-MB-435S = conditions: Homo sapiens, Skin, TP53 Mutant
Method in brief: as §1

MOLM-13 = conditions: Homo sapiens
Method in brief: as §1

NB-4 = conditions: Homo sapiens, Myeloblast, TP53 Mutant
Method in brief: as §1

NCI-H1568 = conditions: Homo sapiens, tissue NA, TP53 Mutant
Method in brief: as §1

NCI-H1792 = conditions: Homo sapiens, Lung, TP53 Mutant
Method in brief: as §1

NCI-H1793 = conditions: Homo sapiens, Lung, TP53 Mutant
Method in brief: as §1

NCI-H2029 = conditions: Homo sapiens, Lung, TP53 Mutant
Method in brief: as §1

NCI-H209 = conditions: Homo sapiens, Lung, TP53 Mutant
Method in brief: as §1

NCI-H250 = conditions: Homo sapiens, Lung, TP53 NA
Method in brief: as §1

NCI-H82 = conditions: Homo sapiens, Lung, TP53 Wild type
Method in brief: as §1

PANC-1 = conditions: Homo sapiens, Pancreas, TP53 Mutant
Method in brief: as §1

PC-3 = conditions: Homo sapiens, Prostate, TP53 Mutant
Method in brief: as §1

SCC-25 = conditions: Homo sapiens, Tongue, TP53 Mutant
Method in brief: as §1

SCH = conditions: Homo sapiens, Stomach, TP53 Mutant
Method in brief: as §1

SK-BR-3 = conditions: Homo sapiens, Pleura, TP53 Mutant
Method in brief: as §1

SK-N-F1 = conditions: Homo sapiens, Brain, TP53 Mutant
Method in brief: as §1

SNU-1 = conditions: Homo sapiens
Method in brief: as §1

SR = conditions: Homo sapiens, Lymphocyte, TP53 Wild type
Method in brief: as §1

SW1417 = conditions: Homo sapiens, Intestine, large, colon, TP53 Mutant
Method in brief: as §1

SW579 = conditions: Homo sapiens, Thyroid gland, TP53 Mutant
Method in brief: as §1

CCOc1cc(C(C)(C)C)ccc1C1=N[C@@](C)(c2ccc(Cl)cc2)[C@@](C)(c2ccc(Cl)cc2)N1C(=O)N1CCN(CCCS(C)(=O)=O)CC1 [COMPOUND A]
IC50 (A-673): 18 µM | IC50 (A2058): 17 µM | IC50 (A549; A549, A549, Lung, TP53 Wild type): 0.86 µM | IC50 (A549; A549, A549 cells): 0.9 µM | IC50 (BT-474): 19 µM | IC50 (C-33 A): 18 µM | IC50 (C32): 3 µM | IC50 (HARA-B): 10 µM | IC50 (HCC1569): 15 µM | IC50 (HCC1954): 12 µM | IC50 (HCT-15): 7.6 µM | IC50 (HT-1376): 16 µM | IC50 (HeLa S3): 20 µM | IC50 (Hs 578T): 8.8 µM | IC50 (IM-9; IM-9, IM-9, Lymphocyte B, peripheral blood, TP53 Wild type): 0.14 µM | IC50 (IM-9; IM-9, IM-9 cells): 0.1 µM | IC50 (KYSE-150): 3 µM | IC50 (LS411N): 16 µM | IC50 (LoVo): 1.3 µM | IC50 (MDA-MB-435S): 12 µM | IC50 (MOLM-13; MOLM-13, MOLM-13, Blood, TP53 Wild type): 0.19 µM | IC50 (MOLM-13; MOLM-13, MOLM-13 cells): 0.2 µM | IC50 (NB-4): 4.7 µM | IC50 (NCI-H1568): 9.6 µM | IC50 (NCI-H1792): 7 µM | IC50 (NCI-H1793): 10 µM | IC50 (NCI-H2029): 5.8 µM | IC50 (NCI-H209): 11 µM | IC50 (NCI-H250): 12 µM | IC50 (NCI-H82): 4.9 µM | IC50 (PANC-1): 22 µM | IC50 (PC-3): 9 µM | IC50 (SCC-25): 9.4 µM | IC50 (SCH): 17 µM | IC50 (SK-BR-3): 21 µM | IC50 (SK-N-F1): 17 µM | IC50 (SNU-1; SNU1, SNU-1, Stomach, TP53 Wild type): 0.37 µM | IC50 (SNU-1; SNU1, SNU-1 cells): 0.4 µM | IC50 (SR): 0.043 µM | IC50 (SW1417): 9.9 µM | IC50 (SW579): 16 µM
